Assay results reported in patent US4575550A, “Platinum complexes” (Shionogi & Co., Ltd., priority 1981, dated 1986).

How the values were obtained:
Sarcoma 180 tumor cells [1] = assay: Antitumor activity against Sarcoma-180 (Experiment 4, intravenous for 5 days); assay type: in vivo, DS mice; conditions: i.v., 5% glucose solution; for ED50: 14400 min
Protocol: (§1) Sarcoma 180 tumor cells (5×10^6 cells) are inoculated to DS mice (6 to 8 mice are employed in each test group) subcutaneously, and a predetermined amount of the test compounds is administered intraperitoneally for 5 days continuously from the next day of the inoculation.
The test was carried out in the same manner as in Experiment 1, wherein the test compounds were administered intravenously for 5 days.
The evaluation was made in the same manner as in Experiment 1.

[2] = system: Leukemia L1210 ascites cells; assay: Antitumor activity against L1210 (Experiment 2, intraperitoneal); assay type: in vivo, BDF1 mice; conditions: i.p.
Protocol: Leukemia L1210 ascites cells (10^5 cells) in mice are intraperitoneally inoculated to BDF1 mice (4 to 10 mice are employed in each test group), and on the next day a predetermined amount of the test compounds is administered intraperitoneally. The solvent for injection consists of 0.9% NaCl, 0.4% Polysorbate 80, 0.5% CMC, and 0.5% benzyl alcohol suspension.
From the average survival days (a) in the test group and those (b) of the untreated control group, the increase of lifespan (ILS) is calculated according to the following expression. [formula]

Sarcoma 180 tumor cells [3] = assay: Antitumor activity against Sarcoma-180 (Experiment 1, intraperitoneal for 5 days); assay type: in vivo, DS mice; conditions: i.p.; for ED50 (effective dose which inhibits the growth of tumors by 50%): 14400 min
Protocol: as §1

kidney = assay: Nephro-toxicity (Experiment 3, once intraperitoneally); assay type: in vivo, male Sprague Dawley rats; design: key: .uparw.: increase; slight increase; .dwnarw.: decrease; ±: no change; conditions: once i.p., (A) 10 mg/kg, (B) 5 mg/kg, solvent 1: 5% glucose
Description: Seven weeks-old male Sprague Dawley rats are separately accommodated in metabolic cages of stainless steel, and solid feed (Clea Japan, INC., CA-1 for breeding) and water are given so that they can take them freely. They are adapted for 3 days and then the test compounds are once administered to rats intraperitoneally at 10:00 a.m. […] The urine excreted during a period of 10 a.m. on the day of administration to 10 a.m. on the next day is defined as urine of the first day; on the urine of the 0-4th days the volume of urine excreted, creatinine, osmotic pressure, urinary enzyme N-acetyl-β-D-glucosaminidase (NAG), and lysozyme (LEZ) are measured, and further urinary protein and urinary sugar are examined with Labstix®. In the morning on the 5th day the rats are anatomized under anesthesia with Ouropan-Soda®(Shionogi & Co., Ltd.; Hexobarbital sodium), and the blood and pathologic specimens of the kidney and the liver are collected in order to determine the level of plasma urea nitrogen and creatinine, and osmotic pressure.

[4] = dose 2 × 1 (dose unit not given)
[5] = dose 5 × 1 (dose unit not given)
[6] = dose 10 × 1 (dose unit not given)
[7] = dose 20 × 1 (dose unit not given)
[8] = 0.9% NaCl, 0.4% Polysorbate 80, 0.5% CMC, 0.5% benzyl alcohol suspension

N.N.[Cl][Pt][Cl] [(B), Cisplatin, reference compound]
ED50 (Sarcoma 180 tumor cells [1]): 4.5 mg/kg | increase of lifespan (ILS) [2, 4]: 11% | increase of lifespan (ILS) [2, 5]: 29% | increase of lifespan (ILS) [2, 6]: > 84% | increase of lifespan (ILS) [2, 7]: -26% | ED50 (effective dose which inhibits the growth of tumors by 50%) (Sarcoma 180 tumor cells [3]; [8]): 7.3 mg/kg | ED50 (effective dose which inhibits the growth of tumors by 50%) (Sarcoma 180 tumor cells [3]; solvent 5% glucose solution): 5.8 mg/kg

N.N.O=C1C[O][Pt][O]1 [C, Glycolato-cis-diammineplatinum(II)]
ED50 (Sarcoma 180 tumor cells [1]): 18.7 mg/kg

N.N.O=C1COCC(=O)[O][Pt][O]1 [D, Diglycolato-cis-diammineplatinum(II)]
CI (curative index) (Sarcoma 180 tumor cells [1]): 3.3 | LD50 (Sarcoma 180 tumor cells [1]): 80.0 mg/kg | ED50 (Sarcoma 180 tumor cells [1]): 24.1 mg/kg

Glucuronato-cis-diammineplatinum(II) [(A)]
CI (curative index) (Sarcoma 180 tumor cells [1]): 2.9 | LD50 (Sarcoma 180 tumor cells [1]): 186 mg/kg | ED50 (Sarcoma 180 tumor cells [1]): 63.4 mg/kg | increase of lifespan (ILS) [2, 4]: 4% | increase of lifespan (ILS) [2, 5]: 12% | increase of lifespan (ILS) [2, 6]: 14% | increase of lifespan (ILS) [2, 7]: > 55% | CI (curative index) (Sarcoma 180 tumor cells [3]; [8]): 3.3 | LD50 (50% lethal dose) (Sarcoma 180 tumor cells [3]; [8]): 113.5 mg/kg | ED50 (effective dose which inhibits the growth of tumors by 50%) (Sarcoma 180 tumor cells [3]; [8]): 34 mg/kg | CI (curative index) (Sarcoma 180 tumor cells [3]; solvent 5% glucose solution): 2.8 | LD50 (50% lethal dose) (Sarcoma 180 tumor cells [3]; solvent 5% glucose solution): 93.4 mg/kg | ED50 (effective dose which inhibits the growth of tumors by 50%) (Sarcoma 180 tumor cells [3]; solvent 5% glucose solution): 33.4 mg/kg | Body Weight (g) (kidney): ± | Creatinine Clearance (kidney): ± | Excrement of Creatinine (mg/24 hrs./100 g BW) (kidney): ± | Excrement of Solute (mOsm/24 hrs./100 g BW) (kidney): ± | Kidney Weight (kidney): ± | LEZ (urinary lysozyme) (kidney): ± | Liver Weight (kidney): ± | Osmotic Pressure of Urine (mOsm/kg) (kidney): ± | Urinary Glucose (kidney): ± | Urinary Protein (kidney): ± | Volume of Urine (ml/24 hrs.) (kidney): ± | Plasma Creatinine (kidney; 5th day): ± | Plasma Osmotic Pressure (kidney; 5th day): ± | Plasma Urea Nitrogen (kidney; 5th day): ±

Glycerato-cis-diammineplatinum(II)
CI (curative index) (Sarcoma 180 tumor cells [1]): 4.2 | LD50 (Sarcoma 180 tumor cells [1]): 186.6 mg/kg | ED50 (Sarcoma 180 tumor cells [1]): 44 mg/kg
